Target: T1, FicD^WT (Homo sapiens, UniProt Q9BVA6)
T1 construct: soluble ER luminal domain (residues 105 to 458) of wild-type human FicD; 6xHis-Sumo (N, cleaved yes); made in house; host or cells: Rosetta(DE3) E. coli
T1 sequence (Q9BVA6 105-458): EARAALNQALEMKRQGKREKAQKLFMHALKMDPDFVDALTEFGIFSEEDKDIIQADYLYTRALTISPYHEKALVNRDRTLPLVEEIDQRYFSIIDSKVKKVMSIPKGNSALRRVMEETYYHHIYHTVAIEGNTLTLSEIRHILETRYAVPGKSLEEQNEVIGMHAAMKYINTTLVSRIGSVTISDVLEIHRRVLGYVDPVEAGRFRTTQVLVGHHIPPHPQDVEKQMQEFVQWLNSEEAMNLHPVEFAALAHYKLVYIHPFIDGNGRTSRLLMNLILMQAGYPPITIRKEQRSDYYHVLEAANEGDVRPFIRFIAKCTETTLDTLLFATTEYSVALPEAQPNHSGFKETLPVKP
Assay: Total (intact) mass analysis of FicD^WT incubated with FPP
Settings: 50uM FPP, 5mM MgCl2
Excerpt: To reveal the mechanism of FicD inhibition by FPP, we leveraged the FicD^E234G mutant for structural studies. We soaked FPP into crystals of the FicD^E234G variant and solved the ligand-bound structure (Fig. 5 A and B). […] The diphosphate group of FPP closely overlapped with the ADP diphosphate when superimposed with a FicD^E234G-ADP structure (Fig. 5 A, Left), and the hydrophobic isoprenyl groups of FPP overlap with the nucleoside in the active site binding pocket (Fig. 5 A, Right). The FPP diphosphate binds directly to the side chains of N369, R371, with the sidechain of D367 coordinating the Mg^2+ (Fig. 5B). These interactions mimic those observed between ADP/ATP and FicD ([26]). […] As previously noted, only GPP and FPP could bind to and inhibit FicD, but analogs of the isoprenoid-pyrophosphate metabolites (geraniol, GMP, farnesol, FMP, DMAPP, and MVAPP) could not (Fig. 2 B–D). Together, these observations indicate both the pyrophosphate head and the long isoprenoid tail of GPP/FPP contribute to the binding with FicD. […]
Intact mass analysis of proteins was performed by the UT Southwestern Proteomics Core. Intact protein samples were analyzed by LC/MS, using a Sciex X500B QTOF mass spectrometer operating in positive ion mode, coupled to an Agilent 1290 Infinity II HPLC. […]

CC(C)=CCC/C(C)=C/CC/C(C)=C/COP(=O)(O)OP(=O)(O)O [FPP, farnesyl-pyrophosphate]
mass shift associated with putative FPP automodification: no mass shift
